Measured values as given in patent US8420676B2, “Oxazolidinone derivatives” (Dong-A Pharmaceuticals Co. Ltd., priority 2003, dated 2013).
Values after ≈ are worked out from the molar mass of the structure shown. Counter-ions that a name gives are not always drawn. Values belong to the molecule of their own block, whether it stands above or below them.

Legend:
[1] = Assay for solubility in distilled water (turbidity by naked eye); type: physicochemical; conditions: average of three runs; for solubility at 2 min: thermodynamic from solid
Method: The derivatives of the present invention were added to 200 μl of distilled water and then the solution was stirred for 2 minutes. The turbidity of the solution was watched through naked eye.
When the derivatives were not dissolved completely, 50 μl of distilled water was added to the solution and then the turbidity of the solution was assayed in the above manner to find a point of becoming transparent solution.
When 2 mg of the derivatives was first added to distilled water and completely dissolved so that the solution became transparent, 2 mg of the derivatives was added more to the solution and then state of the solution was watched. The derivatives of the present invention were added to the five times and then solubility of the solution was assayed for. The assay for solubility was carried out the three times repeatedly in the above method and the results were averaged.

[2] = test system: vancomycin resistant Enterococci (VRE); experiment: Assay for in vitro antibacterial activity, agar dilution (VRE); conditions: Enterococcus, read-out: Minimum Inhibitory Concentration (MIC50) VRE
[3] = test system: methicillin resistant Staphylococcus aureus (MRSA); experiment: Assay for in vitro antibacterial activity, agar dilution (MRSA); conditions: read-out: Minimum Inhibitory Concentration (MIC50) MRSA

Structure (SMILES): C[C@H](N)C(=O)OC[C@H]1CN(c2ccc(-c3ccc(-c4nnn(C)n4)nc3)c(F)c2)C(=O)O1 [Compound 42, (R)-3-(4-(2-(2-methyltetrazol-5-yl)pyridin-5-yl)-3-fluorophenyl)-5-(L-alanyloxy)methyl oxazolidin-2-one trifluoroacetic acid]
Solubility ([1]; listed as compound 42, trifluoroacetic acid): > 50 mg/mL
Solubility ([1]; trifluoroacetic acid): >50 mg/mL

Structure (SMILES): CC(C)[C@H](N)C(=O)OC[C@H]1CN(c2ccc(-c3ccc(-c4nnn(C)n4)nc3)c(F)c2)C(=O)O1.Cl [Compound 43, (R)-3-(4-(2-(2-methyltetrazol-5-yl)pyridin-5-yl)-3-fluorophenyl)-5-(L-valyloxy)methyl oxazolidin-2-one hydrochloride]
Solubility [1]: 4.2 mg/mL
MIC50 [2]: 0.25 µg/mL
MIC50 [3]: 0.5 µg/mL

Structure (SMILES): C[C@H](N)C(=O)OC[C@H]1CN(c2ccc(-c3ccc(-c4nnn(C)n4)nc3)c(F)c2)C(=O)O1.Cl [Compound 44, (R)-3-(4-(2-(2-methyltetrazol-5-yl)pyridin-5-yl)-3-fluorophenyl)-5-(L-alanyloxy)methyl oxazolidin-2-one hydrochloride]
solubility at 2 min [1]: > 50 mg/mL
MIC50 [2]: 0.25 µg/mL
MIC50 [3]: 0.5 µg/mL

Structure (SMILES): Cl.Cn1nnc(-c2ccc(-c3ccc(N4C[C@H](COC(=O)CN)OC4=O)cc3F)cn2)n1 [Compound 45, (R)-3-(4-(2-(2-methyltetrazol-5-yl)pyridin-5-yl)-3-fluorophenyl)-5-glycyloxymethyl oxazolidin-2-one hydrochloride]
Solubility [1]: 12 mg/mL
MIC50 [2]: 0.25 µg/mL
MIC50 [3]: 0.5 µg/mL

Structure (SMILES): Cn1nnc(-c2ccc(-c3ccc(N4C[C@H](COC(=O)[C@@H]5CCCN5)OC4=O)cc3F)cn2)n1 [Compound 46, (R)-3-(4-(2-(2-methyltetrazol-5-yl)pyridin-5-yl)-3-fluorophenyl)-5-(L-prolinyloxy)methyl oxazolidin-2-one trifluoroacetic acid]
solubility at 2 min [1]: < 1.63 mg/mL

Structure (SMILES): Cl.Cn1nnc(-c2ccc(-c3ccc(N4C[C@H](COC(=O)[C@@H]5CCCN5)OC4=O)cc3F)cn2)n1 [Compound 47, (R)-3-(4-(2-(2-methyltetrazol-5-yl)pyridin-5-yl)-3-fluorophenyl)-5-(L-prolinyloxy)methyl oxazolidin-2-one hydrochloride]
solubility at 2 min [1]: 2 mg/mL
MIC50 [2]: 0.25 µg/mL
MIC50 [3]: 0.5 µg/mL

Structure (SMILES): Cc1nnc(-c2ccc(-c3ccc(N4C[C@H](COC(=O)CN)OC4=O)cc3F)cn2)o1.Cl [Compound 48, (R)-3-(4-(2-(2-methyl-[1,3,4]oxadiazol-5-yl)pyridin-5-yl)-3-fluorophenyl)-5-glycyloxymethyl oxazolidin-2-one hydrochloride]
solubility at 2 min [1]: > 50 mg/mL
MIC50 [2]: 1 µg/mL
MIC50 [3]: 0.5 µg/mL

Structure (SMILES): Cn1nnc(-c2ccc(-c3ccc(N4C[C@H](COC(=O)CCN)OC4=O)cc3F)cn2)n1 [Compound 49, (R)-3-(4-(2-(2-methyltetrazol-5-yl)pyridin-5-yl)-3-fluorophenyl)-5-(β-alanyloxy)methyl oxazolidin-2-one trifluoroacetic acid]
Solubility ([1]; trifluoroacetic acid): 2.6 mg/mL (≈ 5890 µM)
MIC50 [2]: 0.25 µg/mL (≈ 0.566 µM)
MIC50 [3]: 0.5 µg/mL (≈ 1.13 µM)

Structure (SMILES): Cn1nnc(-c2ccc(-c3ccc(N4C[C@H](COC(=O)CCN)OC4=O)cc3F)cn2)n1 [Compound 50, (R)-3-(4-(2-(2-methyltetrazol-5-yl)pyridin-5-yl)-3-fluorophenyl)-5-(β-alanyloxy)methyl oxazolidin-2-one hydrochloride]
Solubility ([1]; hydrochloride): 20.4 mg/mL

Structure (SMILES): Cc1nnc(-c2ccc(-c3ccc(N4C[C@H](COC(=O)[C@H](C)N)OC4=O)cc3F)cn2)o1 [Compound 51, (R)-3-(4-(2-(2-methyl-[1,3,4]oxadiazol-5-yl)pyridin-5-yl)-3-fluorophenyl)-5-(L-alanyloxy)methyl oxazolidin-2-one trifluoroacetic acid]
solubility at 2 min [1]: > 50 mg/mL

Structure (SMILES): Cc1nnc(-c2ccc(-c3ccc(N4C[C@H](COC(=O)[C@H](C)N)OC4=O)cc3F)cn2)o1.Cl [Compound 52, (R)-3-(4-(2-(2-methyl-[1,3,4]oxadiazol-5-yl)pyridin-5-yl)-3-fluorophenyl)-5-(L-alanyloxy)methyl oxazolidin-2-one hydrochloride]
solubility at 2 min [1]: > 50 mg/mL
MIC50 [2]: 1 µg/mL
MIC50 [3]: 0.5 µg/mL

Structure (SMILES): Cc1nnc(-c2ccc(-c3ccc(N4C[C@H](COC(=O)[C@@H](N)C(C)C)OC4=O)cc3F)cn2)o1 [Compound 53, (R)-3-(4-(2-(2-methyl-[1,3,4]oxadiazol-5-yl)pyridin-5-yl)-3-fluorophenyl)-5-(L-valyloxy)methyl oxazolidin-2-one trifluoroacetic acid]
solubility at 2 min [1]: 30.3 mg/mL (≈ 64500 µM)

Structure (SMILES): Cc1nnc(-c2ccc(-c3ccc(N4C[C@H](COC(=O)[C@@H](N)C(C)C)OC4=O)cc3F)cn2)o1.Cl [Compound 54, (R)-3-(4-(2-(2-methyl-[1,3,4]oxadiazol-5-yl)pyridin-5-yl)-3-fluorophenyl)-5-(L-valyloxy)methyl oxazolidin-2-one hydrochloride]
solubility at 2 min [1]: 2.9 mg/mL
MIC50 [2]: 1 µg/mL
MIC50 [3]: 0.5 µg/mL

Structure (SMILES): Cc1nnc(-c2ccc(-c3ccc(N4C[C@H](COC(=O)[C@@H]5CCCN5)OC4=O)cc3F)cn2)o1 [Compound 55, (R)-3-(4-(2-(2-methyl-[1,3,4]oxadiazol-5-yl)pyridin-5-yl)-3-fluorophenyl)-5-(L-prolinyloxy)methyl oxazolidin-2-one trifluoroacetic acid]
solubility at 2 min [1]: 7.2 mg/mL (≈ 15400 µM)

Structure (SMILES): Cc1nnc(-c2ccc(-c3ccc(N4C[C@H](COC(=O)[C@@H]5CCCN5)OC4=O)cc3F)cn2)o1.Cl [Compound 56, (R)-3-(4-(2-(2-methyl-[1,3,4]oxadiazol-5-yl)pyridin-5-yl)-3-fluorophenyl)-5-(L-prolinyloxy)methyl oxazolidin-2-one hydrochloride]
solubility at 2 min [1]: > 50 mg/mL
MIC50 [2]: 1 µg/mL
MIC50 [3]: 0.5 µg/mL

Structure (SMILES): Cc1nnc(-c2ccc(-c3ccc(N4C[C@H](COC(=O)CCN)OC4=O)cc3F)cn2)o1 [Compound 57, (R)-3-(4-(2-(2-methyl-[1,3,4]oxadiazol-5-yl)pyridin-5-yl)-3-fluorophenyl)-5-(β-alanyloxy)methyl oxazolidin-2-one trifluoroacetic acid]
solubility at 2 min [1]: > 50 mg/mL

Structure (SMILES): Cn1nnnc1-c1ccc(-c2ccc(N3C[C@H](COC(=O)CN)OC3=O)cc2F)cn1 [Compound 62, (R)-3-(4-(2-(1-methyltetrazol-5-yl)pyridin-5-yl)-3-fluorophenyl)-5-glycyloxymethyl oxazolidin-2-one trifluoroacetic acid]
solubility at 2 min [1]: 28 mg/mL (≈ 65500 µM)

Structure (SMILES): C[C@H](N)C(=O)OC[C@H]1CN(c2ccc(-c3ccc(-c4nnnn4C)nc3)c(F)c2)C(=O)O1 [Compound 64, (R)-3-(4-(2-(1-methyltetrazol-5-yl)pyridin-5-yl)-3-fluorophenyl)-5-(L-alanyloxy)methyl oxazolidin-2-one trifluoroacetic acid]
solubility at 2 min [1]: > 50 mg/mL

Structure (SMILES): CC(C)[C@H](N)C(=O)OC[C@H]1CN(c2ccc(-c3ccc(-c4nnnn4C)nc3)c(F)c2)C(=O)O1 [Compound 66, (R)-3-(4-(2-(1-methyltetrazol-5-yl)pyridin-5-yl)-3-fluorophenyl)-5-(L-valyloxy)methyl oxazolidin-2-one trifluoroacetic acid]
solubility at 2 min [1]: 4.7 mg/mL (≈ 10000 µM)

Structure (SMILES): CC(C)[C@H](N)C(=O)OC[C@H]1CN(c2ccc(-c3ccc(-c4nnnn4C)nc3)c(F)c2)C(=O)O1.Cl [Compound 67, (R)-3-(4-(2-(1-methyltetrazol-5-yl)pyridin-5-yl)-3-fluorophenyl)-5-(L-valyloxy)methyl oxazolidin-2-one hydrochloride]
MIC50 [2]: 0.25 µg/mL
MIC50 [3]: 0.5 µg/mL

Structure (SMILES): Cn1nnnc1-c1ccc(-c2ccc(N3C[C@H](COC(=O)CCN)OC3=O)cc2F)cn1 [Compound 68, (R)-3-(4-(2-(1-methyltetrazol-5-yl)pyridin-5-yl)-3-fluorophenyl)-5-(β-alanyloxy)methyl oxazolidin-2-one trifluoroacetic acid]
solubility at 2 min [1]: 2.6 mg/mL (≈ 5890 µM)

Structure (SMILES): Cl.Cn1nnnc1-c1ccc(-c2ccc(N3C[C@H](COC(=O)CCN)OC3=O)cc2F)cn1 [Compound 69, (R)-3-(4-(2-(1-methyltetrazol-5-yl)pyridin-5-yl)-3-fluorophenyl)-5-(β-alanyloxy)methyl oxazolidin-2-one hydrochloride]
MIC50 [2]: 0.25 µg/mL
MIC50 [3]: 0.5 µg/mL

MIC50 [2]: 0.125 µg/mL (≈ 0.297 µM)
MIC50 [3]: 0.5 µg/mL (≈ 1.19 µM)
Structure (SMILES): Cn1nnnc1-c1ccc(-c2ccc(N3C[C@H](Cn4ccnn4)OC3=O)cc2F)cn1 [Compound 71, (R)-3-(4-(2-(1-methyltetrazol-5-yl)pyridin-5-yl)-3-fluorophenyl)-5-([1,2,3]triazol-1-yl)methyl oxazolidin-2-one]

MIC50 [2]: 32 µg/mL (≈ 71.1 µM)
MIC50 [3]: 32 µg/mL (≈ 71.1 µM)
Structure (SMILES): Cn1nnc(-c2ccc(-c3ccc(N4C[C@H](COP(=O)(O)O)OC4=O)cc3F)cn2)n1 [Compound 72, mono-[(R)-[3-(4-(2-(2-methyltetrazol-5-yl)pyridin-5-yl)-3-fluorophenyl)-2-oxo-5-oxazolidinyl]methyl]phosphate]

MIC50 [2]: 32 µg/mL (≈ 71.1 µM)
MIC50 [3]: 32 µg/mL (≈ 71.1 µM)
Structure (SMILES): Cn1nnnc1-c1ccc(-c2ccc(N3C[C@H](COP(=O)(O)O)OC3=O)cc2F)cn1 [Compound 73, mono-[(R)-[3-(4-(2-(1-methyltetrazol-5-yl)pyridin-5-yl)-3-fluorophenyl)-2-oxo-5-oxazolidinyl]methyl]phosphate]

Structure (SMILES): CC(=O)NC[C@H]1CN(c2ccc(N3CCOCC3)c(F)c2)C(=O)O1 [Zyvox, reference compound]
MIC50 [2]: 2 µg/mL (≈ 5.93 µM)
MIC50 [3]: 2 µg/mL (≈ 5.93 µM)
